Assay [1] relates to GABAA receptor. Put plainly: [^3H]muscimol competition binding, rat brain synaptic membranes. As for the experimental part: On the day of the assay, the membrane preparation was quickly thawed, suspended in 40 volumes of ice-cold 50 mM Tris-HCl buffer (pH 7.4) using an UltraTurrax homogenizer and centrifuged at 48,000 g for 10 min at 4° C. This washing step was repeated four times. The final pellet was resuspended in incubation buffer and the binding assay carried out as detailed below.

The target of assay [2] is T1, human ρ1 GABAC receptors (Homo sapiens, UniProt P24046).
T1 construct: expressed in transfected cells; host or cells: Xenopus laevis oocytes
T1 sequence (P24046 22-479): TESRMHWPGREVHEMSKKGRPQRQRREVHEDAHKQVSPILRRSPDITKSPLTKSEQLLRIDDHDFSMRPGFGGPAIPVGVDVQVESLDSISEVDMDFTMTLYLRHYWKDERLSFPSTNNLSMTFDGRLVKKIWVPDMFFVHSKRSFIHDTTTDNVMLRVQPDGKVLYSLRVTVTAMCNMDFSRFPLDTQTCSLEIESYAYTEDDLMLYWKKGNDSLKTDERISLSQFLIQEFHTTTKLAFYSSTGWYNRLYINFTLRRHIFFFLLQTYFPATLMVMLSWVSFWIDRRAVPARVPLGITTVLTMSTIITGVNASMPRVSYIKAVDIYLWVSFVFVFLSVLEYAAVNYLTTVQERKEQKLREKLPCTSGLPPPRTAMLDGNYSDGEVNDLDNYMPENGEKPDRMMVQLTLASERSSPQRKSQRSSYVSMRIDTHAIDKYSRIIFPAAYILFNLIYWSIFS
In words: Activity at recombinant GABAC receptors expressed in oocytes. As to conditions: 100 μM, hydrochloride salt. Format: cell-based.

Assay [3] addresses T2, hBGT-1 (Homo sapiens, UniProt P48065).
T2 construct: expressed in transfected cells; host or cells: tsA201 cells (transient, PolyFect)
T2 sequence (P48065 1-614): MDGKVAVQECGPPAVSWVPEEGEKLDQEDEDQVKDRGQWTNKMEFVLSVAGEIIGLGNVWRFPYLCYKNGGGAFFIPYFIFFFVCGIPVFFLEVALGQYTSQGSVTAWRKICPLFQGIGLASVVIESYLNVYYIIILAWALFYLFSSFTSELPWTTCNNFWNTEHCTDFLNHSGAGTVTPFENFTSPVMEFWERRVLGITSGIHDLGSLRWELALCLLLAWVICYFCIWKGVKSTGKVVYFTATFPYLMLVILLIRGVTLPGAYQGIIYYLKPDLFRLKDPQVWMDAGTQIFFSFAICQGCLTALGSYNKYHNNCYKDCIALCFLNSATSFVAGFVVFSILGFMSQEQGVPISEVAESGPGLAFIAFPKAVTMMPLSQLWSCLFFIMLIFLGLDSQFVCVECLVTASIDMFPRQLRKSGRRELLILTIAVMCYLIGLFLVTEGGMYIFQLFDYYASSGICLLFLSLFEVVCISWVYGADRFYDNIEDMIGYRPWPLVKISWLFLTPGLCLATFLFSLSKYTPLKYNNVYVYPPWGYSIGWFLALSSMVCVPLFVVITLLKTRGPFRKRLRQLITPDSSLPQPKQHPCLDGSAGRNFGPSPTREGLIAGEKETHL
Put plainly: [^3H]GABA uptake assay at human GABA transporters, tsA201 cells. As to conditions: mammalian cells recombinantly expressing hBGT-1. Format: cell-based. The protocol:
(§1) tsA201 cells were cultured in GlutaMAX-I DMEM supplemented with 10% fetal bovine serum, penicillin (100 U/ml), and streptomycin (100 μg/ml) at 37° C. in a humidified atmosphere of 95% air and 5% CO2. […] Quantification was performed by using Microscint™ 20 scintillation fluid (Perkin Elmer) and a Packard TopCount microplate scintillation counter.

Assay [4] addresses T3, hGAT-1 (Homo sapiens, UniProt P30531).
T3 construct: expressed in transfected cells; host or cells: tsA201 cells (transient, PolyFect)
The assay is described as above. Type of assay: cell-based. The following applies: mammalian cells recombinantly expressing hGAT-1. The protocol: as §1

In assay [5] the target is T4, hGAT-2 (Homo sapiens, UniProt Q9NSD5).
T4 construct: expressed in transfected cells; host or cells: tsA201 cells (transient, PolyFect)
T4 sequence (Q9NSD5 1-602): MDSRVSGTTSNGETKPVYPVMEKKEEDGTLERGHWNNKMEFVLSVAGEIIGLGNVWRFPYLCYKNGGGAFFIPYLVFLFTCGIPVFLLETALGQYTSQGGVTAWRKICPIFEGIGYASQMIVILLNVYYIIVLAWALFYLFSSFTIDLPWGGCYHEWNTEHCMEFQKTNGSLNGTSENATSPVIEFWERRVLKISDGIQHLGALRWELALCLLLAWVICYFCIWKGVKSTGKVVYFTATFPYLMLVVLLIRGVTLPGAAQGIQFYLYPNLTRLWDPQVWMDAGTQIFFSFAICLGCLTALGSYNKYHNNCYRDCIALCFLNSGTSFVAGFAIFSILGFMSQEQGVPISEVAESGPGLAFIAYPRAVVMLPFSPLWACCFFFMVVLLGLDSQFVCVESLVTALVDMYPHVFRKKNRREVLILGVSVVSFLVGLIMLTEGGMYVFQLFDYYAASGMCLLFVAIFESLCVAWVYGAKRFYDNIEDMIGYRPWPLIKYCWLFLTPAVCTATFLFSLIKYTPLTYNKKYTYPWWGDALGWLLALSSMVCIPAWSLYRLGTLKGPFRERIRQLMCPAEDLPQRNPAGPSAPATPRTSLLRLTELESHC
The assay is described as above. Type of assay: cell-based. The following applies: mammalian cells recombinantly expressing hGAT-2. As for the experimental part:
as §1

In assay [6] the target is T5, hGAT-3 (Homo sapiens, UniProt P48066).
T5 construct: expressed in transfected cells; host or cells: tsA201 cells (transient, PolyFect)
T5 sequence (P48066 1-632): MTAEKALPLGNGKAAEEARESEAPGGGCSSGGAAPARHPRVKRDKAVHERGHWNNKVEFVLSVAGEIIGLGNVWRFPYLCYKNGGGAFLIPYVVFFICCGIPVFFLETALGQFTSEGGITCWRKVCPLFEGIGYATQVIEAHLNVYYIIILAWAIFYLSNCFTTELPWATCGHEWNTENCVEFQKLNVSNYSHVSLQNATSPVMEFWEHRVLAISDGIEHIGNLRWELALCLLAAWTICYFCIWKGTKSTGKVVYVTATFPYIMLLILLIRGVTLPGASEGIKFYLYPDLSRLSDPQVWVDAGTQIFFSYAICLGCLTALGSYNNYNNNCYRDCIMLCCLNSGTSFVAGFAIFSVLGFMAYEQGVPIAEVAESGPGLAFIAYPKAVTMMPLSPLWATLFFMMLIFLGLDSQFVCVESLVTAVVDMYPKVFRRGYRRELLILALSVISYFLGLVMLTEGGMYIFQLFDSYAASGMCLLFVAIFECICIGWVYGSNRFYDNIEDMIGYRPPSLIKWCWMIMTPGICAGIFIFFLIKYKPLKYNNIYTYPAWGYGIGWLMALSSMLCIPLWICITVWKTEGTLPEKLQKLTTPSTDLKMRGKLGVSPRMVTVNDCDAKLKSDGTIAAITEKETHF
The description is as above. Format: cell-based. The following applies: mammalian cells recombinantly expressing hGAT-3. The protocol: as §1

The test system of assay [7] is cortical neurons. In words: [^3H]GABA uptake in cultured cortical neurons. Format: cell-based, mouse. As for the experimental part:
(§2) Cortical neurons were cultured essentially as previously described by removing the neopallium of 15-day old NMRI embryos by dissection followed by mild trypsination (Hertz E, Yu A C H, Hertz L, Juurlink B H J and Schousboe A. Preparation of Primary Cultures of Mouse Cortical Neurons, in A Dissection and Tissue Culture Manual of the Nervous System (Shahar A, de Vellis J, Vernadakis A and Haber B eds) pp 183-186, Alan R. Liss, Inc., New York, […]). The neurons were cultured in 10% fetal calf serum and, after 48 h, cytosine arabinoside was added to a final concentration of 20 μM to prevent glial proliferation. […] The stable cell lines are under the selection pressure of blasticidin-S at 5 μg/mL. […] Radioactivity was measured using Microscint™ 20 scintillation fluid (PerkinElmer) and a Packard TopCount microplate scintillation counter.

Assay [8] deals with cortical astrocytes. In words: [^3H]GABA uptake in cultured cortical astrocytes. Type of assay: cell-based, mouse. The protocol:
Cortical astrocytes were cultured essentially as previously described (Hertz L, Juurlink B H J, Hertz E, Fosmark H and Schousboe A, Preparation of Primary Cultures of Mouse (Rat) Astrocytes, in A Dissection and Tissue Culture Manual of the Nervous System (Shahar A, de Vellis J, Vernadakis A and Haber B eds) pp 105-108, Alan R. Liss, Inc., New York, 1989). The neopallium was removed from new born NMRI mice (Taconic, Denmark) and passed through an 80 μm nylon sieve and cultured in modified Dulbecco's modified Eagle's medium with fetal calf serum. The calf serum was lowered from 20% to 10% over three weeks, and finally the astrocytes were allowed to differentiate using 0.25 mM dibutyryl cyclic AMP during the last week of growth.
Cortical neurons were cultured essentially as previously described by removing the neopallium of 15-day old NMRI embryos by dissection followed by mild trypsination (Hertz E, Yu A C H, Hertz L, Juurlink B H J and Schousboe A. Preparation of Primary Cultures of Mouse Cortical Neurons, in A Dissection and Tissue Culture Manual of the Nervous System (Shahar A, de Vellis J, Vernadakis A and Haber B eds) pp 183-186, Alan R. Liss, Inc., New York, 198). […] Radioactivity was measured using Microscint™ 20 scintillation fluid (PerkinElmer) and a Packard TopCount microplate scintillation counter.

Assay [9] deals with reuptake of GABA. Put plainly: GABA reuptake, general statement. Type of assay: cell-based. As for the experimental part: as §1, §2
In assay [10] the target is T6, GABAB receptor (Rattus norvegicus, UniProt Q9Z0U4). The following applies: 100 μM, rat brain cortical homogenate; hydrochloride salt.
T6 sequence (Q9Z0U4 17-960 limits assumed): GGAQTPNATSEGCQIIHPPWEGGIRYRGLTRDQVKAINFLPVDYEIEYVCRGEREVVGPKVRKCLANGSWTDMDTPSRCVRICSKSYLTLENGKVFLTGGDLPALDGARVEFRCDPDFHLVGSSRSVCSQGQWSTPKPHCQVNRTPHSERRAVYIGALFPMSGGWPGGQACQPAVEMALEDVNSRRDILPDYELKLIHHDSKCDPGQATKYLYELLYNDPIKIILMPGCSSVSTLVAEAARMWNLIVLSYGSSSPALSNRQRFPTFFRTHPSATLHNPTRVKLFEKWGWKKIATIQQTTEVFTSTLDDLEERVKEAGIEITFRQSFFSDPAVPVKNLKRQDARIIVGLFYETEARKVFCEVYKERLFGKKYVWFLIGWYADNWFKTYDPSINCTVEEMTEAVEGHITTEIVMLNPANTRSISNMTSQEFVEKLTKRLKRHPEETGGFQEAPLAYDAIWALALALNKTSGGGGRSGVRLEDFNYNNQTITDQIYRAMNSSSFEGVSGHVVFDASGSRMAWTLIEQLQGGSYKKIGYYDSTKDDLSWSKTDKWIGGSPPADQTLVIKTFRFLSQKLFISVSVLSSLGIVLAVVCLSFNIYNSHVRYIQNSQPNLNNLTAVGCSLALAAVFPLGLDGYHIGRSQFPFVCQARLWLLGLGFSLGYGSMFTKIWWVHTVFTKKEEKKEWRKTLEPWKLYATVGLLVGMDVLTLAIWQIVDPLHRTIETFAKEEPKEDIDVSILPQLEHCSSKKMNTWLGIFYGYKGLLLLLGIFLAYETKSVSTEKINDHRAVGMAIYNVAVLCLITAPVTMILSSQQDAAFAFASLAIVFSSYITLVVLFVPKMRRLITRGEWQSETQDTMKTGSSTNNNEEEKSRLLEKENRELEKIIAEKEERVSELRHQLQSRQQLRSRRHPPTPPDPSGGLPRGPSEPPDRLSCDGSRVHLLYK
T6 sequence (O88871 41-940 partner): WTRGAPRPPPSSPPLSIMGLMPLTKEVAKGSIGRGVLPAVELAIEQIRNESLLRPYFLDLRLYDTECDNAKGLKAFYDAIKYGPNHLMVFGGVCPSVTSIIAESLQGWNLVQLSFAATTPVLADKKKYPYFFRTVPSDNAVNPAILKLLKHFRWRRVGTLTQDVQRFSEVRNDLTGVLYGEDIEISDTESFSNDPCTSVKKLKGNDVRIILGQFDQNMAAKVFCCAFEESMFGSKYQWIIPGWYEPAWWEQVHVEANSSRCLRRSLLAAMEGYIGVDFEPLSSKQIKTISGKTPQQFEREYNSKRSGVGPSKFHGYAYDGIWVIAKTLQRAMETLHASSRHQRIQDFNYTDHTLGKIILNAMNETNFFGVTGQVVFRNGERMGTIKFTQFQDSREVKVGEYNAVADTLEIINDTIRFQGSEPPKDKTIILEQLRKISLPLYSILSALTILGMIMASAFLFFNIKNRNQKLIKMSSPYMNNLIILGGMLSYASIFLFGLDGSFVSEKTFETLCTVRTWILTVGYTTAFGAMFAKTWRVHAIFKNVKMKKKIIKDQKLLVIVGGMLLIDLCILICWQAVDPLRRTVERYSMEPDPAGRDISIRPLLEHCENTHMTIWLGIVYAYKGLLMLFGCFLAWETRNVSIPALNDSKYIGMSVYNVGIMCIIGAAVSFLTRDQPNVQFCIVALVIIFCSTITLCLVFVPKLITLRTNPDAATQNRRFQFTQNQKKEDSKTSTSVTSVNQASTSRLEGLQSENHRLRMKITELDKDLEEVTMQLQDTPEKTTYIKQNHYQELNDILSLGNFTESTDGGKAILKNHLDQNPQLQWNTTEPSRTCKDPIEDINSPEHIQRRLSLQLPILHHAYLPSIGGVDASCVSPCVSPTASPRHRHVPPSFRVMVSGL
For assay [11], the target named is T6, GABAB receptor. In words: biochemical.

Entries after “also recorded” stand apart in the source; their conditions may differ.

The term IC50 denotes the concentration that gives 50% inhibition. Low values mean greater potency in that assay, high ones weaker potency in that assay.

T3 sequence (P30531 whole entry): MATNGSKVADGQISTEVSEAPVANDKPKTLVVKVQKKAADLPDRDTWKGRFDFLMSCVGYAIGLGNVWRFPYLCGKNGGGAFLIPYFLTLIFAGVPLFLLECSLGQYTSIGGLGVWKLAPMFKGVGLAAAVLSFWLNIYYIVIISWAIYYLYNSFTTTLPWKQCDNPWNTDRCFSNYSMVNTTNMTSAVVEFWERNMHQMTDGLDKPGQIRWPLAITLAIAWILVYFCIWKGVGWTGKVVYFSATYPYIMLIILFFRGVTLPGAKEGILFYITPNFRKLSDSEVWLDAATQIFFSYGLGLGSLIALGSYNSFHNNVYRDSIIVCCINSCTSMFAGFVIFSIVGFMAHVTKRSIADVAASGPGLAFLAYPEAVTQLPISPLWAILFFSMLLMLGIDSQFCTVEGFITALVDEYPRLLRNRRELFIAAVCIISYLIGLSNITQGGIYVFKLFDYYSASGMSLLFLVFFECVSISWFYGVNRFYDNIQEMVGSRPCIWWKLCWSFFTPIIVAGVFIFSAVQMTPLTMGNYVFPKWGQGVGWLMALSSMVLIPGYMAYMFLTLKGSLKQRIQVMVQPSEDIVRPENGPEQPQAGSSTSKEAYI

For `Cl.N[C@H]1C[C@@H](C(=O)O)CC1=C(F)F` [(1S,3S)-3-amino-4-difluoromethylenyl-1-cyclopentanoic acid hydrochloride salt], in assay [1] (100 μM, rat brain cortical homogenate, hydrochloride salt), the “inhibition of radioligand binding at GABAA receptors” value is “no inhibition of binding was observed; also recorded: nor does it bind”. Also, the “agonist or antagonist effect at GABAC receptors” value in assay [2] is listed as “no effect as an agonist or antagonist”. In addition, the “inhibition of [^3H]GABA uptake” value in assay [3], in assay [4], in assay [5], in assay [6], in [7] and in assay [8] was “does not inhibit” in each case. In addition, in [9], the “inhibition of the reuptake of GABA” value was “does not inhibit the reuptake of GABA”. In addition, the “inhibition of radioligand binding at GABAB receptors” value in [10] is on record as “no inhibition of binding was observed”.
Consider `N[C@H]1C[C@@H](C(=O)O)CC1=C(F)F` [(1S,3S)-3-amino-4-difluoromethylenyl-1-cyclopentanoic acid], for which the half-inhibitory concentration (IC50) in assay [1] (rat brain synaptic membranes) and in assay [11] was over 100 µM throughout.
